Results on 4 compounds are retold here after patent publication US12637478B2, “Compound, preparation method thereof, and antibiotic composition comprising same” (priority 2020, dated 2026).

One assay relates to M. avium. Kind of assay: MIC by resazurin (REMA) assay against Mycobacterium, test strain 21. Format: cell-based. The conditions noted are these: test strain 21, M. avium, resazurin, read-out: MIC. The procedure: (§1) In order to test the antibacterial activity, the medium of Mycobacterium cultured to late log phase was diluted so as to be 4.0×10^5 cells/well in Middlebrook 7H10 agar medium (Difco) supplemented with 10% oleic acid, albumin, dextrose, catalase (OADC, Becton Dickinson) and 0.05% Tween 80 (Sigma Aldrich) and was dispensed into a 96-well plate. The compounds were treated so that DMSO was 1%, and after 3 days, a 0.025% resazurin (REMA) solution was dispensed, and the growth of the bacteria was confirmed after culturing. The MIC value was measured for the antibacterial activity through resazurin (excitation 530 nm, emission 590 nm).
On the technique in general: Resazurin is reduced to fluorescent resorufin, in cell work by metabolically active cells.

Another assay relates to M. abscessus. As to the kind of experiment: MIC by resazurin (REMA) assay against Mycobacterium, test strain 23. It is filed as cell-based. The conditions noted are these: Mycobacteroides abscessus. Here is the method:
as §1

In another assay the test system is M. intracelluare. Kind of assay: MIC by resazurin (REMA) assay against Mycobacterium, test strain 22. It is filed as cell-based. The conditions noted are these: Mycobacterium intracellulare. The procedure:
as §1

The next assay relates to C. difficile 9689. As to the kind of experiment: MIC by agar dilution against Clostridioides difficile, test strain 13. Format: cell-based. (In agar dilution the substance is mixed into plates at graded concentrations.)
For a further assay, the system named is C. difficile 173. As to the kind of experiment: MIC by agar dilution against Clostridioides difficile, test strain 17. It is filed as cell-based.
Another assay has as its system C. difficile 161. Kind of assay: MIC by agar dilution against Clostridioides difficile, test strain 16. Format: cell-based.
The test system of assay [1] is S. aureus^MS. As to the kind of experiment: MIC by broth microdilution (aerobic pathogens), test strain 1. Format: cell-based. The conditions noted are these: Staphylococcus aureus. In short, it runs like this: (§2)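 CLSI broth microdilution (M7-A5); MIC = minimum concentration giving 90% growth inhibition vs no-drug control. Panel of 13 aerobic Gram-positive strains incl. resistant staphylococci and enterococci.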
In general terms: In broth dilution the organism is exposed to a series of concentrations in liquid medium.

Another assay has as its system S. epidermis. Kind of assay: MIC by broth microdilution (aerobic pathogens), test strain 5. Format: cell-based. The conditions noted are these: Staphylococcus epidermidis. In short, it runs like this: as §2
Another assay relates to E. faecalis^VanA. As to the kind of experiment: MIC by broth microdilution (aerobic pathogens), test strain 8. Format: cell-based, Vancomycin resistant Enterococcus faecalis. The conditions noted are these: Enterococcus faecalis; test strain 8, E. faecalis^VanA (vancomycin resistant); read-out: MIC. An outline of the steps:
as §2

In the next assay the test system is E. faecalis. Kind of assay: MIC by broth microdilution (aerobic pathogens), test strain 7. It is filed as cell-based. The conditions noted are these: Enterococcus faecalis. In short, it runs like this:
as §2

The next assay concerns C. difficile 181. As to the kind of experiment: MIC by agar dilution against Clostridioides difficile, test strain 19. It is filed as cell-based.
For the next assay, the system named is C. difficile 159. Kind of assay: MIC by agar dilution against Clostridioides difficile, test strain 15. Format: cell-based. The conditions noted are these: test strain 15, C. difficile 159, anaerobic, agar dilution, read-out: MIC.
For another assay, the system named is C. difficile 174. As to the kind of experiment: MIC by agar dilution against Clostridioides difficile, test strain 18. Format: cell-based.
A further assay relates to E. faecium^VRE. As to the kind of experiment: MIC by broth microdilution (aerobic pathogens), test strain 11. Format: cell-based, Vancomycin resistant Enterococcus faecium. The conditions noted are these: Enterococcus faecium; test strain 11, E. faecium^VRE (vancomycin resistant); read-out: MIC. The procedure:
(§3) The antibacterial activity of the compounds of Examples 1 to 48 of the present invention against aerobic pathogens were evaluated by measuring the minimum concentration of the antibiotic capable of inhibiting bacterial growth by 90% compared to the growth of the non-drug treated control group. MIC was measured by the broth microdilution method based on CLSI standards [Reference: Clinical and Laboratory Standards Institute Document. (2000) Methods for Dilution Antimicrobial Susceptibility Test for Bacteria that Grow Aerobically-Fifth Edition: M7-A5. CLSI, Villanova, PA].
(§4) All 13 strains such as methicillin susceptible Staphylococcus aureus (MSSA), methicillin resistant Staphylococcus aureus (MRSA), Vancomycin resistant Staphylococcus aureus (VRSA), Staphylococcus epidermidis, methicillin resistant Staphylococcus epidermidis, Enterococcus faecalis, Vancomycin resistant Enterococcus faecalis, Enterococcus faecium, Vancomycin resistant Enterococcus faecium were used.

The subject of a further assay is E. faecium^LinR. Kind of assay: MIC by broth microdilution (aerobic pathogens), test strain 12. Format: cell-based, Linezolid resistant Enterococcus faecium. The conditions noted are these: Enterococcus faecium; test strain 12, E. faecium^LinR (linezolid resistant); read-out: MIC. An outline of the steps:
as §2

Assay [2] concerns S. aureus^MS. Kind of assay: MIC by broth microdilution (aerobic pathogens), test strain 2. Format: cell-based. The conditions noted are these: Staphylococcus aureus; test strain 2, S. aureus^MS; read-out: MIC. In short, it runs like this:
as §2

In another assay the test system is S. epidermis^MR. As to the kind of experiment: MIC by broth microdilution (aerobic pathogens), test strain 6. Format: cell-based, Methicillin resistant Staphylococcus epidermidis. The conditions noted are these: Staphylococcus epidermidis. In short, it runs like this: as §2
For another assay, the system named is C. difficile 152. As to the kind of experiment: MIC by agar dilution against Clostridioides difficile, test strain 14. It is filed as cell-based.
The test system of a further assay is S. aureus^VR. Kind of assay: MIC by broth microdilution (aerobic pathogens), test strain 4. Format: cell-based, Vancomycin resistant Staphylococcus aureus. The conditions noted are these: Staphylococcus aureus; test strain 4, S. aureus^VR (vancomycin resistant); read-out: MIC. Here is the method: as §3, §4
A further assay has as its system E. faecalis^LinR. As to the kind of experiment: MIC by broth microdilution (aerobic pathogens), test strain 9. It is filed as cell-based, Linezolid resistant Enterococcus faecalis. The conditions noted are these: Enterococcus faecalis; test strain 9, E. faecalis^LinR (linezolid resistant); read-out: MIC. An outline of the steps:
as §2

The subject of another assay is E. faecium. Kind of assay: MIC by broth microdilution (aerobic pathogens), test strain 10. It is filed as cell-based. The conditions noted are these: Enterococcus faecium; test strain 10, E. faecium; read-out: MIC. An outline of the steps:
as §2

A further assay has as its system S. aureus^MR. Kind of assay: MIC by broth microdilution (aerobic pathogens), test strain 3. It is filed as cell-based, Methicillin resistant Staphylococcus aureus. The conditions noted are these: Staphylococcus aureus; test strain 3, S. aureus^MR (methicillin resistant); read-out: MIC. The procedure: as §3, §4
The mark [3] stands for this setting: test strain 23, M. abscessus, resazurin, read-out: MIC.
Setting [4] is: test strain 13, C. difficile 9689, anaerobic, agar dilution, read-out: MIC.
[5] abbreviates: test strain 17, C. difficile 173, anaerobic, agar dilution, read-out: MIC.
Where [6] appears, read: test strain 16, C. difficile 161, anaerobic, agar dilution, read-out: MIC.
[7] abbreviates: test strain 1, S. aureus^MS, read-out: MIC.
The mark [8] stands for this setting: test strain 7, E. faecalis, read-out: MIC.
The mark [9] stands for this setting: test strain 19, C. difficile 181, anaerobic, agar dilution, read-out: MIC.
Setting [10] is: test strain 18, C. difficile 174, anaerobic, agar dilution, read-out: MIC.
Where [11] appears, read: test strain 6, S. epidermis^MR (methicillin resistant), read-out: MIC.
Setting [12] is: test strain 14, C. difficile 152, anaerobic, agar dilution, read-out: MIC.

≈ marks a conversion by molar mass, not a printed value. Like-named read-outs stand apart in the source and are kept apart here.

For `CC[C@H]1OC(=O)[C@H](C)[C@@H](O[C@H]2C[C@@](C)(OC)[C@@H](O)[C@H](C)O2)[C@H](C)[C@@H](O[C@@H]2O[C@H](C)C[C@H](N(C)C)[C@H]2O)[C@](C)(OC)C[C@@H](C)C(=O)[C@H](C)[C@@H](O)[C@]1(C)O` [Cla, Clarithromycin, reference compound], the MIC (usually the lowest concentration that inhibits growth of the organism) in the assay on M. avium is 0.205 µg/mL (≈ 0.274 µM); with M. abscessus (setting [3]), 1.28 µg/mL (≈ 1.71 µM); with M. intracelluare (test strain 22, M. intracelluare, resazurin, read-out: MIC) it was 0.143 µg/mL (≈ 0.191 µM).

Consider `C/C=C1\NC(=O)[C@H]([C@@H](C)O)NC(=O)c2csc(n2)-c2ccc(-c3nc(-c4nc(C(=O)NC5(C(=O)NCCCN6C(=O)CNC6=O)CC5)cs4)cs3)nc2-c2csc(n2)[C@H]([C@@H](C)O)NC(=O)c2csc(n2)[C@H](C(C)C)NC(=O)c2csc1n2` [Compound 9], for which the MIC with C. difficile 9689 (setting [4]) was determined as 0.5 µg/mL (≈ 0.408 µM); with M. abscessus (setting [3]), 0.37 µg/mL (≈ 0.302 µM); in the assay with C. difficile 173 (setting [5]), 0.06 µg/mL (≈ 0.0489 µM); in the assay with C. difficile 161 (setting [6]), 0.5 µg/mL (≈ 0.408 µM); in the assay on S. aureus^MS [1] (setting [7]), 0.25 µg/mL (≈ 0.204 µM); in the assay on S. epidermis, 0.125 µg/mL (≈ 0.102 µM). Also, the MIC is 0.5 µg/mL (≈ 0.408 µM) in the assay with E. faecalis^VanA; 0.25 µg/mL (≈ 0.204 µM) with E. faecalis (setting [8]); 0.25 µg/mL (≈ 0.204 µM) in the assay with C. difficile 181 (setting [9]); 0.5 µg/mL (≈ 0.408 µM) in the assay with C. difficile 159; 0.06 µg/mL (≈ 0.0489 µM) with C. difficile 174 (setting [10]); 1 µg/mL (≈ 0.815 µM) in the assay with E. faecium^VRE. Further, the MIC was 0.5 µg/mL (≈ 0.408 µM) in the assay with E. faecium^LinR; 0.25 µg/mL (≈ 0.204 µM) with S. aureus^MS [2]; 0.25 µg/mL (≈ 0.204 µM) in the assay with S. epidermis^MR (setting [11]); 0.06 µg/mL (≈ 0.0489 µM) with C. difficile 152 (setting [12]); 1 µg/mL (≈ 0.815 µM) in the assay with S. aureus^VR; 0.5 µg/mL (≈ 0.408 µM) in the assay with E. faecalis^LinR. Further, the MIC in the assay with E. faecium turned out to be 0.5 µg/mL (≈ 0.408 µM); with S. aureus^MR, 1 µg/mL (≈ 0.815 µM).

With `C/C=C1\NC(=O)[C@H]([C@@H](C)O)NC(=O)c2csc(n2)-c2ccc(-c3nc(-c4nc(C(=O)NC5(C(=O)NCCCN6CCN(C(C)C)CC6)CC5)cs4)cs3)nc2-c2csc(n2)[C@H]([C@@H](C)O)NC(=O)c2csc(n2)[C@H](C(C)C)NC(=O)c2csc1n2` [Compound 12], the MIC stood at 0.5 µg/mL (≈ 0.399 µM) in the assay with C. difficile 9689 (setting [4]); 0.135 µg/mL (≈ 0.108 µM) with M. avium; 1 µg/mL (≈ 0.797 µM) in the assay with C. difficile 173 (setting [5]); 0.5 µg/mL (≈ 0.399 µM) in the assay with C. difficile 161 (setting [6]); 1 µg/mL (≈ 0.797 µM) with S. aureus^MS [1] (setting [7]); 0.5 µg/mL (≈ 0.399 µM) in the assay on S. epidermis (test strain 5, S. epidermis, read-out: MIC). The MIC was 1 µg/mL (≈ 0.797 µM) in the assay with E. faecalis^VanA; 1 µg/mL (≈ 0.797 µM) in the assay with E. faecalis (setting [8]); 0.125 µg/mL (≈ 0.0996 µM) with C. difficile 181 (setting [9]); 0.125 µg/mL (≈ 0.0996 µM) with C. difficile 174 (setting [10]); 1 µg/mL (≈ 0.797 µM) in the assay on S. aureus^MS [2]; 1 µg/mL (≈ 0.797 µM) with S. epidermis^MR (setting [11]). Moreover, the MIC in the assay with C. difficile 152 (setting [12]), in the assay on E. faecalis^LinR and in the assay on E. faecium was 1 µg/mL (≈ 0.797 µM) throughout.

For the compound `C/C=C1\NC(=O)[C@H]([C@@H](C)O)NC(=O)c2csc(n2)-c2ccc(-c3nc(-c4nc(C(=O)NC5(C(=O)NN6CC(=O)N(CC(=O)OC)C6=O)CC5)cs4)cs3)nc2-c2csc(n2)[C@H]([C@@H](C)O)NC(=O)c2csc(n2)[C@H](C(C)C)NC(=O)c2csc1n2` [Compound 26], the MIC against C. difficile 9689 (9689) turned out to be 1 µg/mL (≈ 0.796 µM); in the assay with M. abscessus, 0.726 µg/mL (≈ 0.578 µM); in the assay with C. difficile 173 (173), 0.5 µg/mL (≈ 0.398 µM); with C. difficile 161 (161), 0.5 µg/mL (≈ 0.398 µM); against S. aureus^MS [1], 1 µg/mL (≈ 0.796 µM); in the assay on S. epidermis it was 0.5 µg/mL (≈ 0.398 µM). Moreover, the MIC against E. faecalis was found to be 1 µg/mL (≈ 0.796 µM); with C. difficile 181 (181) it was 1 µg/mL (≈ 0.796 µM); against C. difficile 174 (174), 0.5 µg/mL (≈ 0.398 µM); with S. epidermis^MR it was 1 µg/mL (≈ 0.796 µM); against C. difficile 152 (152) it was 0.5 µg/mL (≈ 0.398 µM); with M. intracelluare it was 0.043 µg/mL (≈ 0.0342 µM).
